The text below walks through data of patent US20120259007A1, “ANTICOAGULANT COMPOUNDS AND THEIR USE” (HAOMA MEDICA LIMITED, priority 2009, published 2012).

As a reminder, the IC50 is the concentration that inhibits the measured activity by half.

SMILES strings stand for the structures.

One test deals with Mice. The test is described as follows: Observed anticoagulant activity (bleeding) in treated mice. It counts as in vivo. To be noted: single injection 15 μg/mouse/day intraperitoneally in 10% ethanol in saline. The procedure:
Mice were treated with one compound of the present invention (4E)-6-(1,4-dihydro-2-methyl-1,4-dioxonaphthalen-3-yl)-4-methylhex-4-enoic acid (VIII) [also called NaQuinate herein] in the form of a single injection (15 μg/mouse/day) administered in 10% ethanol in saline injections intraperitoneally. Control mice received the carrier but not the NaQuinate active component.
As for `CC1=C(C/C=C(\C)CCC(=O)O)C(=O)c2ccccc2C1=O` [NaQuinate (VIII), (4E)-6-(1,4-dihydro-2-methyl-1,4-dioxonaphthalen-3-yl)-4-methylhex-4-enoic acid], the “bleeding compared with mice not treated (anticoagulant effect)” value is listed as “bleed out much more profusely”.

A further test concerns the target T1, recombinant human γ-carboxylase (Homo sapiens, UniProt P38435).
T1 construct: made in house; host or cells: Trichoplusia ni High Five cells (microsomes)
T1 sequence (P38435 1-758): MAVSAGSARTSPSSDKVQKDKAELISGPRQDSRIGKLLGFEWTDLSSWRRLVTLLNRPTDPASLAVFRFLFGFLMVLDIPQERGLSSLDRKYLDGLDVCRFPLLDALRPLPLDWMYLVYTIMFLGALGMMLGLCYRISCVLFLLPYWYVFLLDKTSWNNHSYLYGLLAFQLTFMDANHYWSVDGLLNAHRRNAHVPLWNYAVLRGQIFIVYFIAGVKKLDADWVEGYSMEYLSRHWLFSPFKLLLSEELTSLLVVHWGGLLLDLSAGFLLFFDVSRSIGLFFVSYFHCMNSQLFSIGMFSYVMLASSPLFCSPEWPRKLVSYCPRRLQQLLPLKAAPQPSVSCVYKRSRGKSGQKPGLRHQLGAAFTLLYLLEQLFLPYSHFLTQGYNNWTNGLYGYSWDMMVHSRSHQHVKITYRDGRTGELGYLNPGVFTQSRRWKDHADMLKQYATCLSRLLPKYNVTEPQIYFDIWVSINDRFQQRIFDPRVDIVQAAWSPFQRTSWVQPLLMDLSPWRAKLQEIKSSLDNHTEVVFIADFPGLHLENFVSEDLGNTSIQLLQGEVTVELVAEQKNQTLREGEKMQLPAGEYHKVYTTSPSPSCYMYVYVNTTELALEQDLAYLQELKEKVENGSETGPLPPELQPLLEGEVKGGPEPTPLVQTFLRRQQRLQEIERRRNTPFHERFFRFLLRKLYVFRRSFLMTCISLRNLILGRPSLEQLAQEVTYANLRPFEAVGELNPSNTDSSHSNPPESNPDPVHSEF
The test is described as follows: Inhibition of recombinant human gamma-carboxylase (14CO2 incorporation, microsomes from High Five cells). It counts as biochemical. To be noted: in the presence of 220 μM vitamin K1 hydroquinone; compounds reduced to hydroquinone forms; n=1; read-out: IC50 against 220 μM vitamin K1. The procedure:
The compounds to be tested were reduced to their hydroquinone forms by the addition of 0.2 M DTT to a solution of the compounds in DMSO (giving a final v/v ratio of 1:3 DTT:DMSO) and overnight incubation in a water bath (37° C.).
In this assay a different microsomal preparation was used than the one described above. This microsomal preparation consists of microsomes prepared from Trichoplusia ni High Five cells that had had the cDNA for the human γ-carboxylase incorporated into their DNA. These microsomes were taken from stores that had been prepared as described by Houben, R. J., D. Jin, et al. (1999). “Osteocalcin binds tightly to the gamma-glutamylcarboxylase at a site distinct from that of the other known vitamin K-dependent proteins.” Biochem J 341 (Pt 2): 265-9.
Standard reaction mixtures contained 5 μl of microsomal preparation, 5 μl of 500 μM decarboxylated osteocalcin (d-OC) (except for the negative control tube), 25 μl of saturated ammonium sulphate solution, 5 μl of 5% PC/CHAPS. In addition to this, 1:3 (v/v) DMSO: 0.2 M DTT was added to the tubes (to take into account the fact that the compounds were dissolved in 1:3 DMSO: 0.2 M DTT) to give a total volume of 40 μl DMSO: 0.2 M DTT per tube. A solution of Buffer D was added to give all final tubes a uniform volume of 125 μl. The experiment was initiated by the addition of 10 μl of a 1:1 (v/v) mixture of vitamin K hydroquinone (final concentration of 220 μM) and NaH^14CO3 (final radioactivity of 5 μCi) to each tube, followed by a range of concentrations of the compounds.
As to `COC(=O)C(C)CCC1=C(C)C(=O)c2ccccc2C1=O` (stereo not shown) [KCAT-5C-Me (XIX)], the IC50 was 514 µM.

As to `CC1=C(C/C=C(\C)CCC(=O)O)C(=O)c2ccccc2C1=O` [NaQuinate (VIII), (4E)-6-(1,4-dihydro-2-methyl-1,4-dioxonaphthalen-3-yl)-4-methylhex-4-enoic acid], the IC50 came to 152 µM.

Turning to `COC(=O)CCC(C)=CCC1=C(C)C(=O)c2ccccc2C1=O` [NaQuinate-Me (VII)], the IC50 is 358 µM.

Consider `CC1=CC(=O)c2ccccc2C1=O` [Vitamin K3 (III), menadione, reference compound], for which the IC50 stood at 460 µM.

As for `CC1=C(C/C=C(\C)C(=O)O)C(=O)c2ccccc2C1=O` [KCAT-5C (XIV), (2E)-4-(1,4-dihydro-2-methyl-1,4-dioxonaphthalen-3-yl)-2-methylbut-2-enoic acid], the 50% inhibitory concentration (IC50) is 340 µM.

In the case of `COC(=O)CC/C(C)=C/CC1=C(C)C(=O)C(OC)=C(OC)C1=O` [QCAT-Me (XVIII)], the IC50 was found to be 534 µM.
